Test results as given in paper PMC4839570, “Novel Anthra[1,2-c][1,2,5]Thiadiazole-6,11-Diones as Promising Anticancer Lead Compounds: Biological Evaluation, Characterization & Molecular Targets Determination” (PLoS ONE, 2016).
Like-named read-outs stand apart in the source and are kept apart here.

Legend:
DMS114 = experiment: JFCR-39 cytotoxicity screen; format: cell-based
ACHN = experiment: NCI-60 cytotoxicity screen; format: cell-based
MDA-MB-435 = experiment: NCI-60 cytotoxicity screen; format: cell-based
MOLT-4 = experiment: NCI-60 cytotoxicity screen; format: cell-based
COLO 205 = experiment: NCI-60 cytotoxicity screen; format: cell-based
OVCAR-4 = experiment: JFCR-39 cytotoxicity screen; format: cell-based
HL-60(TB) = experiment: NCI-60 cytotoxicity screen; format: cell-based
[1] = system: NCI 60 human cancer cell lines; experiment: NCI-60 screen, means, ranges and selectivity over panels; format: cell-based; details: for GI50: Homo sapiens
Experimental: (§1) Both NSC745885 and NSC757963 satisfied the pre-determined threshold inhibition criteria of the NCI-60 One-Dose Screening, so they were tested against the panels of 60 cancer cell lines of NCI (NCI-60) and 39 cancer cell lines of JFCR (JFCR-39), each cell line was tested at five small doses of our compounds. Results are expressed as the 50% growth inhibition concentration (GI50), the 50% lethal concentration (LC50) and the total growth inhibition (TGI), compared to the values of untreated control cells.
(§2) To characterize the selectivity of NSC745885 and NSC757963 further among the different types of cancer, we determined their selectivity ratios towards each cell line subpanel used in the cytotoxicity experiments. […] The promising activity of this compound is evident from the small mean GI50 values. […] The strongest activity was towards the leukemia subpanel and the least one was towards the colon cancer subpanel. […] The strongest activity was towards the melanoma subpanel and the least one was towards the colon cancer subpanel.
(§3) All cell lines were published before.

HCC2998 = experiment: JFCR-39 cytotoxicity screen; format: cell-based
HOP-92 = experiment: NCI-60 cytotoxicity screen; format: cell-based
PC-3 = experiment: NCI-60 cytotoxicity screen; format: cell-based
IGROV1 = experiment: NCI-60 cytotoxicity screen; format: cell-based
[2] = system: JFCR 39 human cancer cell lines; experiment: JFCR-39 screen, means, ranges and selectivity over panels; format: cell-based; details: for GI50: Homo sapiens
Experimental: as §1, §2, §3

U251 = experiment: JFCR-39 cytotoxicity screen; format: cell-based
ST-4 = experiment: JFCR-39 cytotoxicity screen; format: cell-based
[3] = system: NF-κB p65 subunit translocation in OVCAR-3 cells; experiment: NF-κB inhibition by immunocytochemical fluorescent staining; format: cell-based, human; details: 5 μM
Experimental: Inhibition of NF-κB was detected according to Ataie-Kachoie et al.. Briefly, each group of tested cells were seeded on coverslips treated with HCl and ethanol, and autoclaved prior to use. Immunostaining of the p65 subunit of NF-κB was done by permeabilizing the cells with Triton […], then by treating the cells with anti-NF-κB p65 rabbit monoclonal primary antibody [E379] Abcam # ab32536, followed by Alexa Fluor® 488 Donkey anti-rabbit IgG secondary antibody Biolegend # 406416. Nuclei of cells were stained with 4',6-diamidino-2-phenylindole (DAPI). Images were acquired using fluorescence microscope. Tested cells were divided into five groups which are no treatment control, no primary antibody control, PDTC (50 μM) treated control, NSC745885 (5 μM) and NSC757963 (5 μM) treated controls.

NCI-H226 = experiment: JFCR-39 cytotoxicity screen; format: cell-based
[4] = Homo sapiens, Fig 7, read-out: mean log10 of the GI50 values (converted)
[5] = Homo sapiens, five-dose, read-out: GI50
[6] = Homo sapiens, five-dose, read-out: LC50 (the source's name)
[7] = Homo sapiens, read-out: LC50 (the source's name)

For `O=C1c2ccccc2C(=O)c2c1ccc1nsnc21` [NSC745885, anthra[1,2-c][1,2,5]thiadiazole-6,11-dione], the TGI (DMS114) was 1.8 µM, the GI50 (DMS114; Homo sapiens, DMS-114) was 0.5 µM and the CC50 (DMS114; Homo sapiens, DMS-114, read-out: LC50 (the source's name)) was 5 µM. For the same molecule, the GI50 (ACHN; [4]) was 1.58 µM, the GI50 (ACHN; [5]) was 1.46 µM and the CC50 (ACHN; [6]) was 5.27 µM. The inhibition at 10 µM (ACHN; Homo sapiens, single dose 10 μM, read-out: growth inhibition) was 94.3%, the TGI (ACHN; five-dose) was 2.77 µM and the GI50 (MDA-MB-435; [4]) was 1.91 µM. For the same molecule, the GI50 (MDA-MB-435; [5]) was 1.91 µM, the CC50 (MDA-MB-435; [6]) was 5.76 µM and the TGI (MDA-MB-435; five-dose) was 3.31 µM. For the same molecule, the GI50 (MOLT-4; [4]) was 0.891 µM, the GI50 (MOLT-4; [5]) was 0.49 µM and the CC50 (MOLT-4; [6]) was 4.71 µM. For the same molecule, the TGI (MOLT-4; five-dose) was 1.84 µM, the GI50 (COLO 205; Homo sapiens, COLO205, Fig 7, read-out: mean log10 of the GI50 values (converted)) was 5.13 µM and the GI50 (COLO 205; [5]) was 13.4 µM. The CC50 (COLO 205; [6]) was 62.4 µM, the TGI (COLO 205; five-dose) was 28.9 µM and the TGI (OVCAR-4) was 2.9 µM. For the same molecule, the GI50 (OVCAR-4; Homo sapiens) was 1.5 µM, the CC50 (OVCAR-4; [7]) was 5.5 µM and the GI50 (HL-60(TB); [4]) was 0.589 µM. For the same molecule, the GI50 (HL-60(TB); [5]) was 0.16 µM, the CC50 (HL-60(TB); [6]) was 0.99 µM and the TGI (HL-60(TB); five-dose) was 0.39 µM. For the same molecule, the “selectivity ratios of the NCI subpanels other than leukemia” value [1] was “less than 3”, the GI50 ([1]; Fig 7, read-out: MG-MID of mean log10 GI50 (converted)) was 2.4 µM and the GI50 ([1]; NCI Breast Cancer, read-out: Mean GI50 of subpanel) was 1.54 µM. It also gave a GI50 ([1]; NCI CNS Cancer, read-out: Mean GI50 of subpanel) of 1.91 µM, a GI50 ([1]; NCI Colon Cancer, read-out: Mean GI50 of subpanel) of 7.23 µM and a GI50 ([1]; NCI Leukemia, read-out: Mean GI50 of subpanel) of 0.966 µM. The GI50 ([1]; NCI Melanoma, read-out: Mean GI50 of subpanel) was 1.65 µM, the GI50 ([1]; NCI Non-Small Cell Lung Cancer, read-out: Mean GI50 of subpanel) was 5.37 µM and the GI50 ([1]; NCI Ovarian Cancer, read-out: Mean GI50 of subpanel) was 2.24 µM. For the same molecule, the GI50 ([1]; NCI Prostate Cancer, read-out: Mean GI50 of subpanel) was 2.45 µM, the GI50 ([1]; NCI Renal Cancer, read-out: Mean GI50 of subpanel) was 3.65 µM and the GI50 ([1]; all NCI subpanels, read-out: mean GI50 values of the NCI 60 subpanels, range) was 0.97 to 7.2 µM. For the same molecule, the GI50 ([1]; equivalent to MID, read-out: Mean GI50 of all NCI-60 cell line panels) was 3.23 µM, the GI50 ([1]; five-dose, read-out: NCI-60 GI50 values, range over cell lines) was 0.16 to 17.4 µM and the Selectivity ratio ([1]; NCI Breast Cancer) was 2.1. It also gave a Selectivity ratio ([1]; NCI CNS Cancer) of 1.69, a Selectivity ratio ([1]; NCI Colon Cancer) of 0.45 and a Selectivity ratio ([1]; NCI Leukemia) of 3.35. For the same molecule, the Selectivity ratio ([1]; NCI Melanoma) was 1.96, the Selectivity ratio ([1]; NCI Non-Small Cell Lung Cancer) was 0.6 and the Selectivity ratio ([1]; NCI Ovarian Cancer) was 1.44. For the same molecule, the Selectivity ratio ([1]; NCI Prostate Cancer) was 1.32, the Selectivity ratio ([1]; NCI Renal Cancer) was 0.89 and the TGI (HCC2998) was 3.9 µM. It also gave a GI50 (HCC2998; Homo sapiens, HCC 2998) of 2.1 µM, a CC50 (HCC2998; Homo sapiens, HCC 2998, read-out: LC50 (the source's name)) of 7.5 µM and a GI50 (HOP-92; [4]) of 2.69 µM. It also gave a GI50 (HOP-92; [5]) of 2.52 µM, a CC50 (HOP-92; [6]) of over 100 µM and a TGI (HOP-92; five-dose) of 6.64 µM. For the same molecule, the GI50 (PC-3; [4]) was 3.16 µM, the GI50 (PC-3; [5]) was 3.23 µM and the CC50 (PC-3; [6]) was over 100 µM. The TGI (PC-3; five-dose) was over 100 µM, the GI50 (IGROV1; Homo sapiens, IGROV-1, Fig 7, read-out: mean log10 of the GI50 values (converted)) was 1.38 µM and the GI50 (IGROV1; Homo sapiens, IGROV-1, five-dose, read-out: GI50) was 1.36 µM. The CC50 (IGROV1; Homo sapiens, IGROV-1, five-dose, read-out: LC50 (the source's name)) was 6.35 µM, the TGI (IGROV1; five-dose) was 2.94 µM and the “selectivity ratios of the JFCR subpanels (for NSC745885 except melanoma)” value [2] was “less than 3”. For the same molecule, the GI50 ([2]; JFCR Breast Cancer, read-out: Mean GI50 of subpanel) was 1.66 µM, the GI50 ([2]; JFCR CNS Cancer, read-out: Mean GI50 of subpanel) was 1.87 µM and the GI50 ([2]; JFCR Colon Cancer, read-out: Mean GI50 of subpanel) was 5.36 µM. It also gave a GI50 ([2]; JFCR Lung Cancer, read-out: Mean GI50 of subpanel) of 4.13 µM, a GI50 ([2]; JFCR Melanoma, read-out: Mean GI50 of subpanel) of 0.86 µM and a GI50 ([2]; JFCR Ovarian Cancer, read-out: Mean GI50 of subpanel) of 1.63 µM. For the same molecule, the GI50 ([2]; JFCR Prostate Cancer, read-out: Mean GI50 of subpanel) was 1.65 µM, the GI50 ([2]; JFCR Renal Cancer, read-out: Mean GI50 of subpanel) was 2.1 µM and the GI50 ([2]; JFCR Stomach Cancer, read-out: Mean GI50 of subpanel) was 1.71 µM. For the same molecule, the GI50 ([2]; all JFCR subpanels, read-out: mean GI50 values of the JFCR subpanels, range) was 0.86 to 5.36 µM, the GI50 ([2]; equivalent to MG-MID, read-out: Mean GI50 of all JFCR-39 cell line panels) was 2.62 µM and the GI50 ([2]; five-dose, read-out: JFCR-39 GI50 values, range over cell lines) was 0.47 to 19 µM. It also gave a Selectivity ratio ([2]; JFCR Breast Cancer) of 1.58, a Selectivity ratio ([2]; JFCR CNS Cancer) of 1.4 and a Selectivity ratio ([2]; JFCR Colon Cancer) of 0.49. It also gave a Selectivity ratio ([2]; JFCR Lung Cancer) of 0.63, a Selectivity ratio ([2]; JFCR Melanoma) of 3.04 and a Selectivity ratio ([2]; JFCR Ovarian Cancer) of 1.6. It also gave a Selectivity ratio ([2]; JFCR Prostate Cancer) of 1.59, a Selectivity ratio ([2]; JFCR Renal Cancer) of 1.25 and a Selectivity ratio ([2]; JFCR Stomach Cancer) of 1.53. The TGI (U251) was 3.1 µM, the GI50 (U251; Homo sapiens, U-251) was 1.6 µM and the CC50 (U251; Homo sapiens, U-251, read-out: LC50 (the source's name)) was 5.8 µM. It also gave a TGI (ST-4) of 4.0 µM, a GI50 (ST-4; Homo sapiens) of 2 µM and a CC50 (ST-4; [7]) of 8 µM. The “nuclear translocation of the NF-κB p65 subunit” value [3] was “significantly capable of preventing the nuclear translocation of the NF-κB p65 subunit”, the TGI (NCI-H226) was 3.4 µM and the GI50 (NCI-H226; Homo sapiens) was 1.6 µM. The CC50 (NCI-H226; [7]) was 7.3 µM.
